The source of these data is ChEMBL document CHEMBL1201862, “PubChem BioAssay data set” (2004).

The source made the active and inactive calls. Bounds are passed on as bounds.

The target in one assay is Hexokinase (Trypanosoma brucei, UniProt Q38C41). As to the kind of experiment: Confirmation assay for inhibitors of Trypanosoma brucei hexokinase 1-Analogue-first series. [Related pubchem assays (depositor defined):AID1430, AID1632, AID2516, AID2560, AID2579, AID2600, AID449725, AID492951]. In kind it is functional.
The subject of assay [1] is HEK293. The assay is described as follows: NOD1 signaling inhibitors, primary screen, cell-based, luminescence, uHTS (AID 1578). Type of assay: functional. Particulars: Homo sapiens.
In assay [2] the test system is Streptococcus sp. 'group A'. The assay is described as follows: growth inhibition of control SK(-) GAS strain, dose response, counter-screen for streptokinase expression inhibitor project, luminescence, kanamycin, BacTiterGlo, confirmation (AID 1900). In kind it is functional, organism-based. Background: A counterscreen serves to expose hits that act by an unwanted route or on another target.

In assay [3] the test system is HEK293. The assay is described as follows: cells. In kind it is functional, cell-based. The note with it: Homo sapiens.
Assay [4] concerns HEK293. As to the kind of experiment: cells. Particulars: Homo sapiens. Type of assay: functional, cell-based. This is another data set of the same source.
The target of assay [5] is Nucleotide-binding oligomerization domain-containing protein 2 (Homo sapiens, UniProt Q9HC29). As to the kind of experiment: NOD2 signaling inhibitors, cell-based, luminescence, uHTS, HEK293 (AID 1566). In kind it is functional.
For assay [6], the system named is HEK293. As to the kind of experiment: NOD2 signaling inhibitors in MDP-stimulated cells, cell-based, uHTS, luminescence (AID 2001). In kind it is functional. Particulars: Homo sapiens.
Assay [7] has as its system HEK293. As to the kind of experiment: cells. Type of assay: functional, cell-based. The note with it: Homo sapiens. This is another data set of the same source.
A short description of assay [8]: microbe, parasite or virus in culture. In kind it is functional. The note with it: Mycobacterium tuberculosis.
The next assay relates to Streptococcus. As to the kind of experiment: Group A Streptococcus viability loss, dose response, counter-screen for streptokinase expression inhibitor project, luminescence, BacTiterGlo (AID 1915).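 Further: potency for reduction of bacterial viability or growth.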 In kind it is functional, organism-based.
Assay [9] concerns the target T1, Replicative DNA helicase DnaB (Mycobacterium tuberculosis, UniProt P9WMR3).
T1 sequence (P9WMR3 whole entry): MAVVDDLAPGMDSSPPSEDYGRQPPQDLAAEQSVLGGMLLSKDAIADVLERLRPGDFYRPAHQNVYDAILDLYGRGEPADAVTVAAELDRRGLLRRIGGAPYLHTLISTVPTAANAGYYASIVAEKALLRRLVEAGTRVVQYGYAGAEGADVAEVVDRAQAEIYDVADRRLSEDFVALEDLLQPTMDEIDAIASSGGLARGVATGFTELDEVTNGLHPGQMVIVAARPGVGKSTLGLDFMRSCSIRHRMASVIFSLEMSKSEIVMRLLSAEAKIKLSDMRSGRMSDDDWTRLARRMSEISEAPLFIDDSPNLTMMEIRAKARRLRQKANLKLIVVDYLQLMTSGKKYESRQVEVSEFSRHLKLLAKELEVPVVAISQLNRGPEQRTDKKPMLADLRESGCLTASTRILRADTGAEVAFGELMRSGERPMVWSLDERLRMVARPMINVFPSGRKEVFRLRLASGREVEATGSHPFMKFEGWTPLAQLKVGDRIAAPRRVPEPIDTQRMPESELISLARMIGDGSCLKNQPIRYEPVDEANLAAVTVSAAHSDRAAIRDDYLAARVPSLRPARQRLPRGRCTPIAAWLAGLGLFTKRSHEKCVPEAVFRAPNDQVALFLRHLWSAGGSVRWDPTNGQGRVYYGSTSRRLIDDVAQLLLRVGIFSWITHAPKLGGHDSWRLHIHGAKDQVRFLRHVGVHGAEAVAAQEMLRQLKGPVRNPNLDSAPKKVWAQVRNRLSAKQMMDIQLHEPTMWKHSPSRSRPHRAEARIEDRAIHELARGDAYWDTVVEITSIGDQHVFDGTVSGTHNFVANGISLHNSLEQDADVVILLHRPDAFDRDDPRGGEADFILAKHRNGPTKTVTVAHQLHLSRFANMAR
The assay is described as follows: DnaB intein splicing inhibitors, dose response, biochemical, cell-free fluorescence (AID 449749). In kind it is functional.

The target of another assay is T2, Protein RecA (Mycobacterium tuberculosis, UniProt P9WHJ3).
T2 sequence (P9WHJ3 whole entry): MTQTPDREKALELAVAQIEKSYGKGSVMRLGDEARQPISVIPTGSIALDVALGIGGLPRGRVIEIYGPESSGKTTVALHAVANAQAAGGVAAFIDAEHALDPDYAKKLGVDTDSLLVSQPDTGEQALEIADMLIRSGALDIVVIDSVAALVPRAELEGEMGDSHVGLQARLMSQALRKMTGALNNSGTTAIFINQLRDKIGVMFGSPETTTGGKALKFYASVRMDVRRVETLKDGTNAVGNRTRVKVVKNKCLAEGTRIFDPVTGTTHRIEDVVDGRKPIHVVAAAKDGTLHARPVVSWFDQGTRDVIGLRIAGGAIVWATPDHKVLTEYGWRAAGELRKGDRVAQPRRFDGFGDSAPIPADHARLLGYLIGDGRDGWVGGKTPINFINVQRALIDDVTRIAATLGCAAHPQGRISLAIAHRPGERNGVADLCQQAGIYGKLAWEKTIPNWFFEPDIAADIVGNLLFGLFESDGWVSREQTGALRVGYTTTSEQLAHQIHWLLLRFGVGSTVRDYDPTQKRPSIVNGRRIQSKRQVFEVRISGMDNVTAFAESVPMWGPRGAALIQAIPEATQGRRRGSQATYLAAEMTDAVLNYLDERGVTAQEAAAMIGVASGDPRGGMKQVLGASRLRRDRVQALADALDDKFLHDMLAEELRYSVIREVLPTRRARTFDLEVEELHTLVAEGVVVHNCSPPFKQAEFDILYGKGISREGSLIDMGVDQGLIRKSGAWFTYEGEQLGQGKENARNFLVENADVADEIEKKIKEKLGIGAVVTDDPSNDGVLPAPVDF
As to the kind of experiment: Fluorescence Cell-Free Homogeneous Dose Retest to Identify Inhibitors of RecA-Intein Splicing Activity. [Related pubchem assays (depositor defined):AID2097, AID2223, AID489010, AID492950]. Type of assay: functional.

Assay [10] deals with T3, Voltage-gated N-type calcium channel alpha-1B subunit/Amyloid beta A4 precursor protein-binding family A member 1 (Homo sapiens, UniProt Q00975+Q02410). In kind it is protein assay.
For assay [11], the target named is E3 ubiquitin-protein ligase XIAP (Homo sapiens, UniProt P98170). As to the kind of experiment: Counter Screen using XIAP-Bir3 for Chemical Antagonists of Bir1/2 domains of IAP-family anti-apoptotic proteins. [Related pubchem assays (depositor defined):AID1018, AID1449, AID1514, AID1638, AID1749, AID1750, AID488957, AID488963].
Assay [12] deals with T3, Voltage-gated N-type calcium channel alpha-1B subunit/Amyloid beta A4 precursor protein-binding family A member 1. Type of assay: protein assay. The source holds these as a separate data set.
The target of assay [13] is T4, Short transient receptor potential channel 4 (Mus musculus, UniProt Q9QUQ5).
T4 sequence (Q9QUQ5 whole entry): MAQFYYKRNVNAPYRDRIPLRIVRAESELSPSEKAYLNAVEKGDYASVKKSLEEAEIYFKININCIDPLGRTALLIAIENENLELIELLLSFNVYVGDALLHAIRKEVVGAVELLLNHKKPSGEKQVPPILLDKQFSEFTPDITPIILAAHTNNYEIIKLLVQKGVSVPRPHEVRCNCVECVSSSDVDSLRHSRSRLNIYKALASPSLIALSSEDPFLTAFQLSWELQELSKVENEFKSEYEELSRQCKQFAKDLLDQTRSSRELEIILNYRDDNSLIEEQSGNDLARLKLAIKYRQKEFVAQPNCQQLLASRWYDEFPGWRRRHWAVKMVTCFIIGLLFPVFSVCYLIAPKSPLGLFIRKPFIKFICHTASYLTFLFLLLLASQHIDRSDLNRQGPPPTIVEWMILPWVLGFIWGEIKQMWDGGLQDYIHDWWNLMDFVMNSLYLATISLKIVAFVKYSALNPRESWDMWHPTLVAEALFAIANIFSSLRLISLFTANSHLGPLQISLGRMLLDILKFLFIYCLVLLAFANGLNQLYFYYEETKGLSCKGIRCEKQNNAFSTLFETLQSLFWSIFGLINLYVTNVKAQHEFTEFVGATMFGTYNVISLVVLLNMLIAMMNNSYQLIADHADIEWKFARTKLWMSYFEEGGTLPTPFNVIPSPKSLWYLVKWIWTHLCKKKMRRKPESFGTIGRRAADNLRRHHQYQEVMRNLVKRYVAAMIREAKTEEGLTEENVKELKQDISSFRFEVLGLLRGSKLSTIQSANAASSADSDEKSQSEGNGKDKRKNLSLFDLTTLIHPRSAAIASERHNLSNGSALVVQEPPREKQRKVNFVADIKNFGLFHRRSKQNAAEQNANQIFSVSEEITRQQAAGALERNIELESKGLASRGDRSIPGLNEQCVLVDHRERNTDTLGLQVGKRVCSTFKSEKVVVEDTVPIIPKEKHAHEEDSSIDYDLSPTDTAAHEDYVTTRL
As to the kind of experiment: mouse TRPC4 channel inhibitors, dose response, cell-based, HEK293 TRPC4/mu-opioid, Fluo-4 calcium (AID 434942).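 Further: potency of inhibitors blocking the TRPC4 calcium response.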 In kind it is functional.

Hexokinase, sequence (Q38C41 whole entry): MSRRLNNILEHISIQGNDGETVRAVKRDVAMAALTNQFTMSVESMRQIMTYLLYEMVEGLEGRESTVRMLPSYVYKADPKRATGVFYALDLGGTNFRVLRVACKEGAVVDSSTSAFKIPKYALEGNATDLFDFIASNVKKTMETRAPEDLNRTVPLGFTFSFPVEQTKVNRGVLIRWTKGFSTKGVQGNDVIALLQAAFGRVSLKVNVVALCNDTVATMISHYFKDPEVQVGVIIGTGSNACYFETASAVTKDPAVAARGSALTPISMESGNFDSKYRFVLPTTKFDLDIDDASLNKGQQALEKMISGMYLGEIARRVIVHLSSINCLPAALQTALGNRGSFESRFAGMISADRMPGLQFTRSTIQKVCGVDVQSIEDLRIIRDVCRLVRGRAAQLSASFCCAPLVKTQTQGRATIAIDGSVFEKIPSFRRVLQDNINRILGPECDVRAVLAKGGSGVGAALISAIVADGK
T3 sequence (Q00975 whole entry): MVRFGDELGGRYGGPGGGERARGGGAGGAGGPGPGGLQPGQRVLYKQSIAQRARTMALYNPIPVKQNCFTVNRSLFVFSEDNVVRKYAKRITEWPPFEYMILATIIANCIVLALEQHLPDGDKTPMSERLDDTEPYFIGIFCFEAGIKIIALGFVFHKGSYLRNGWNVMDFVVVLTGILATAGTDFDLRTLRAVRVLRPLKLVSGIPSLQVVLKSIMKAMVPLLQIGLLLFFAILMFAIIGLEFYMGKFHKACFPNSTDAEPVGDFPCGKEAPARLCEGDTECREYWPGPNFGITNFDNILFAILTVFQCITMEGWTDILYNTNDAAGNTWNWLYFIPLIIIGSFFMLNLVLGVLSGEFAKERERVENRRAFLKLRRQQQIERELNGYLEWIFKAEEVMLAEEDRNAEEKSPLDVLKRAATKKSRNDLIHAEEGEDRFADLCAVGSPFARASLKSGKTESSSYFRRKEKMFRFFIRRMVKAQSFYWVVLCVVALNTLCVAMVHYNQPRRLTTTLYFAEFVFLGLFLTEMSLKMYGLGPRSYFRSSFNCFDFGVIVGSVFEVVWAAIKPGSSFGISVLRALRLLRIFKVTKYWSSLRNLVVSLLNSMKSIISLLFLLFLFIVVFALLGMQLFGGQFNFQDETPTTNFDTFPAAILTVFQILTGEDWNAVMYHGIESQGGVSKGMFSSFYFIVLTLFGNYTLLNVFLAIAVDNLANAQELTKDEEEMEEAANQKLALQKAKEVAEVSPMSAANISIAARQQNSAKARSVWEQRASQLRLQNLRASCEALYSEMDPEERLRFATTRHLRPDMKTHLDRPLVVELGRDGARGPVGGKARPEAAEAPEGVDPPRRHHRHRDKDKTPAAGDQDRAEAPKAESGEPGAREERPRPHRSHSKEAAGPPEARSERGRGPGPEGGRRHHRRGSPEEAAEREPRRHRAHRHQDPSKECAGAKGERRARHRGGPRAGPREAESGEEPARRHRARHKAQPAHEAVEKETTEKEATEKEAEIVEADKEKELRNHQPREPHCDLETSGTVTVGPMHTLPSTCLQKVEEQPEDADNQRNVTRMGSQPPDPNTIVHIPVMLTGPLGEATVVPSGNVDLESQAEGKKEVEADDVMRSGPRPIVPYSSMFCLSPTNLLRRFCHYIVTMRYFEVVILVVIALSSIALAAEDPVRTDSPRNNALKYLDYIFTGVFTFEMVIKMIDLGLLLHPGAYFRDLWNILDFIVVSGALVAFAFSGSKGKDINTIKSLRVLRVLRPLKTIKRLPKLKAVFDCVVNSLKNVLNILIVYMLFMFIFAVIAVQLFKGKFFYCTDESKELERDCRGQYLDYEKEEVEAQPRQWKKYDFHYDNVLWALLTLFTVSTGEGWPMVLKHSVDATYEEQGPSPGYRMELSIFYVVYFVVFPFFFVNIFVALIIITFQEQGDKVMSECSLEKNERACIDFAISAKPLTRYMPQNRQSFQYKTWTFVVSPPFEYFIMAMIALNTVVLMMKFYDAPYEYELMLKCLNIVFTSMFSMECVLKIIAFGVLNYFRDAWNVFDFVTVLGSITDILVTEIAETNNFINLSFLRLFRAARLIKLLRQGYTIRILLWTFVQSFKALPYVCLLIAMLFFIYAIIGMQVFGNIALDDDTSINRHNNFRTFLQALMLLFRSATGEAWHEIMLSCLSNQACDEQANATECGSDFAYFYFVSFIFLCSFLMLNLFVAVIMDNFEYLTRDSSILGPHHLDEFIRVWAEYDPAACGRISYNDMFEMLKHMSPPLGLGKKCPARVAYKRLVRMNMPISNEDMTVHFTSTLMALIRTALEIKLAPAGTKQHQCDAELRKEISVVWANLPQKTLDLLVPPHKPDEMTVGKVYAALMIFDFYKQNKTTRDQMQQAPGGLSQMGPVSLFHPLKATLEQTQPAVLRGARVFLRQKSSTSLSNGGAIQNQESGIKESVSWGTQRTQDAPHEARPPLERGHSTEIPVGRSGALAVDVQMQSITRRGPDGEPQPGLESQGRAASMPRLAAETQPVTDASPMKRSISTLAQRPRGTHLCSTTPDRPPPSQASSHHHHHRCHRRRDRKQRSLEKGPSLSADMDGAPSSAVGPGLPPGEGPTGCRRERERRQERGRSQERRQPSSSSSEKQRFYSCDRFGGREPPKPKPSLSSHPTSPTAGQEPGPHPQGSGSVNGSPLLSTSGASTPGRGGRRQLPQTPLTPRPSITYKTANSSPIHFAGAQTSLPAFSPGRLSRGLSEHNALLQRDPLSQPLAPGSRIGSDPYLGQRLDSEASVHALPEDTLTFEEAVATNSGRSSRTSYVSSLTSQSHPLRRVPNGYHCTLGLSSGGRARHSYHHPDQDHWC
T3 sequence (Q02410 whole entry): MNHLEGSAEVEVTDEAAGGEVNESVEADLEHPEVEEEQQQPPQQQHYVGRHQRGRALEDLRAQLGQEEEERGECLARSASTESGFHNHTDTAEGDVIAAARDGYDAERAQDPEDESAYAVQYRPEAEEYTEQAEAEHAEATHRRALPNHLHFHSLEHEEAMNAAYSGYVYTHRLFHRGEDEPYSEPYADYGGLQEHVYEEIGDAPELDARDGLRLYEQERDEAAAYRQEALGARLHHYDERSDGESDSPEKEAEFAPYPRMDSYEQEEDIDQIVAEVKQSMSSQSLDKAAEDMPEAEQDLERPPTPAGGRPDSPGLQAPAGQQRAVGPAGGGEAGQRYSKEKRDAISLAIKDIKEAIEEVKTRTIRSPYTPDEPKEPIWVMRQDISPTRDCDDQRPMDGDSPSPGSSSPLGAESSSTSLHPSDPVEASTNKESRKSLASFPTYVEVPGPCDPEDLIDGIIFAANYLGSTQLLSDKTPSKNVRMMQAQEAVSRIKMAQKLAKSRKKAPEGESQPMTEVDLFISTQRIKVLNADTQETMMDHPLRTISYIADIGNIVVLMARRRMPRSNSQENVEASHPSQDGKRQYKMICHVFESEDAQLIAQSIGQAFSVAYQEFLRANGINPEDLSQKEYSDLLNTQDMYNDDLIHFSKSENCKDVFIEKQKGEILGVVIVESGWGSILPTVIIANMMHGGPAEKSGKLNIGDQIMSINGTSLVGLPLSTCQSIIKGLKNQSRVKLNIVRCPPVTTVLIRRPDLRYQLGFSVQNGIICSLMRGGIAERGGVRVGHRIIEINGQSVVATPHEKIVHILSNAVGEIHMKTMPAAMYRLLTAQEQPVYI
Nucleotide-binding oligomerization domain-containing protein 2, sequence (Q9HC29 whole entry, the tested form may be a part): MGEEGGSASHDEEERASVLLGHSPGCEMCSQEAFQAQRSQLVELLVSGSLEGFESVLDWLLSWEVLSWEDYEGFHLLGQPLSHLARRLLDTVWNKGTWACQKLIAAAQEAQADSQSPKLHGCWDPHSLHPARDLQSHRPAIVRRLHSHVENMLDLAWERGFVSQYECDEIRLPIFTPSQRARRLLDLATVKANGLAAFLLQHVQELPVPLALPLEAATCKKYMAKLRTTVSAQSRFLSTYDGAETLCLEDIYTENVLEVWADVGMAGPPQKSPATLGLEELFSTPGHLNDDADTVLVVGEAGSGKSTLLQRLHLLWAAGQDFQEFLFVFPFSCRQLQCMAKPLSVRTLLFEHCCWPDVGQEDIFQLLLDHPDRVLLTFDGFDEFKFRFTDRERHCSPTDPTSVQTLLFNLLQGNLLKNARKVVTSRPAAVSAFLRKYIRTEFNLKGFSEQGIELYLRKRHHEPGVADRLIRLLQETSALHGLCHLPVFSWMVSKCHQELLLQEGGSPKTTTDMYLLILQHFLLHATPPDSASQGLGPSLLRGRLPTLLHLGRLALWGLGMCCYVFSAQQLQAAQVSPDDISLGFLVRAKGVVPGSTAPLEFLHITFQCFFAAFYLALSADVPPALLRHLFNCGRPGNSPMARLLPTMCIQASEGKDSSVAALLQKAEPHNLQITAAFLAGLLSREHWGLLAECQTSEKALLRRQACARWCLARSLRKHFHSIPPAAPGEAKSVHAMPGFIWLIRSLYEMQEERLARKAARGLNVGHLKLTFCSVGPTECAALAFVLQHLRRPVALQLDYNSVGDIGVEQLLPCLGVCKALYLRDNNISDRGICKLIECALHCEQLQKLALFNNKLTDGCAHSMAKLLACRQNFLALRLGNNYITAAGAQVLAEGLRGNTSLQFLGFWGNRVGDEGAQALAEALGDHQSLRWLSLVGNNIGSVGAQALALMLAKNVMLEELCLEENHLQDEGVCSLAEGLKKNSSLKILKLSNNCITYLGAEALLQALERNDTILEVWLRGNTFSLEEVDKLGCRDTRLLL

In general, IC50 refers to the concentration at which inhibition is half-maximal. With `O=c1c2cc(F)ccc2sn1-c1ccc(Cl)cc1`, at Hexokinase, the IC50 was 3.01 µM (active).
One may read the EC50 as the midpoint of the concentration-response curve. Take `Nc1nn2c(O)cc(-c3ccccc3)nc2c1N=Nc1ccc2c(c1)OCO2`: the EC50 in the assay with HEK293 [1] is 18.4 µM (active); in assay [2] it was 2.16 µM (active); in assay [5], > 20 µM (inactive); in the assay on Streptococcus, 3.77 µM (active). For the same molecule, the IC50 with HEK293 [3] was > 20 µM (inactive); with HEK293 [4] it was > 20 µM (inactive); in the assay with HEK293 [6], 14.5 µM (inactive); with HEK293 [7], 19 µM (active). In addition, the CC50 in assay [8] is 29.9 µM (active).
Usually AC50 stands for the concentration at which the activity in the assay is half-maximal. For the molecule `O=C(CCl)Nc1c2c(nn1-c1ccccc1)CSC2`, the concentration for a half-maximal effect (EC50) was 3.07 µM (active) in the assay on HEK293 [1], > 20 µM (inactive) in assay [5] and 11.4 µM (active) at Protein RecA. Besides, the IC50 with HEK293 [3] was 8.63 µM (active); in the assay on HEK293 [4], > 20 µM (inactive); in the assay on HEK293 [6] it was 15.1 µM (inactive); with HEK293 [7], > 20 µM (inactive). Moreover, in assay [9], the AC50 was 60.5 µM (active).
As for `O=C(Nc1ccc(S(=O)(=O)N2CCOCC2)cc1)c1ccc(O)nc1`, the IC50 was 7.16 µM (active) in assay [10], > 20 µM (inactive) in assay [11] and > 50 µM (inactive) in assay [12].
On to `O=C(Nc1cc(Cl)ccc1C(=O)O)c1ccccc1`, for which the IC50 on Hexokinase is > 25 µM (inactive).
For `CC(C)Cc1nc(N2CCOCC2)c(C#N)c2c1CCC2`, the EC50 in assay [13] was 6.68 µM (active).
As to `CCOc1ccc(Br)cc1/C=N/O`, the EC50 in assay [13] is 5.96 µM (active).
